This passage reports Activity, ED50 and EC50 results from ChEMBL document CHEMBL1122759, “6-Hydroxy-4-[2-(di-n-propylamino)ethyl]indole: synthesis and dopaminergic actions” (1984).

Assay [1] deals with T1, Dopamine receptor (Homo sapiens) (UniProt P14416+P35462+P21918+P21917+P21728). The experiment in a line: […] inhibitory activity against dopamine receptor in isolated cat atria; active. The settings on record: Felis catus; target entry is the homologue from another species.
The test system of assay [2] is Felis catus. The assay can be described thus: Compound tested in vivo for sympathetic neuronal activity in cat cardioaccelerator nerve after iv administration. Format: functional. The settings on record: Sympathetic neuron.
Assay [3] relates to Felis catus. The experiment in a line: Compound tested in vivo for sympathetic neuronal activity in cat cardioaccelerator nerve after intraduodenal administration. In kind it is functional. The settings on record: Sympathetic neuron.
The subject of assay [4] is Felis catus. The assay can be described thus: Compound tested in vitro for sympathetic neuronal activity in cat atria […]. In kind it is functional. The settings on record: Sympathetic neuron, read-out: ED50 (the source's name).
For assay [5], the system named is Felis catus. The assay can be described thus: Compound tested in vitro for sympathetic neuronal activity in cat atria […]; no inhibition with concentrations uM. The settings on record: Sympathetic neuron. In kind it is functional.
Assay [6] deals with T1, Dopamine receptor (Homo sapiens). The experiment in a line: […] inhibitory activity against dopamine receptor in isolated cat atria; inactive. The settings on record: Felis catus; target entry is the homologue from another species.

Activity calls are given as the source filed them. The rule behind the calls is not given here.

Usually ED50 stands for the dose at which the effect has come halfway, by size or by number of responders. Regarding `CCCN(CCC)CCc1cc(O)cc2[nH]ccc12`, the result in assay [1] was Active. For the same molecule, the ED50 in the assay with Felis catus [2] stood at 0.019 µmol/kg; in the assay on Felis catus [3] it was 0.047 µmol/kg. Besides, in the assay with Felis catus [4], the EC50 amounted to 27 nM.

Consider `CCCN(CCC)CCc1cccc2[nH]ccc12`, for which, in the assay on Felis catus [2], the 50% effect level (ED50) was put at a dose of 0.22 µmol/kg. For the same molecule, the ED50 entry with Felis catus [5] is “inactive”. The result in assay [6] was inactive.

In turn, `CN1C[C@H](CC#N)C[C@@H]2c3cccc4[nH]c(Cl)c(c34)C[C@H]21` [LERGOTRILE] yielded an ED50 in the assay on Felis catus [2] of 0.27 µmol/kg.
